Measured values as given in patent USH25H, “Thiophosphoryl triamide as a urease inhibitor” (Tennessee Valley Authority, priority 1985, dated 1986).

What was measured:
[1] = tested on: soil urease (Crowley silt loam); experiment: Well-mixed inhibitor-soil incubation test, urea added at intervals (modified Douglass and Bremner procedure); type: biochemical; conditions: for Percent urea unhydrolyzed (higher = more urease inhibition): 7 micromoles per 120 g Crowley soil, 30° C., 16 hours with urea
Description: Test compounds in Example II, infra, were evaluated in soil systems by a modification of the Douglass and Bremner procedure [L. A. Douglass and J. W. Bremner, Soil Biol. Biochem. 3, 309-315 (1971)] in which solutions or suspensions of the test compounds were mixed throughout the soil. Then at selected time intervals urea was added to the soil-inhibitor mixtures. The advantage of this procedure is that soil urease inhibition by the test compounds can be detected for time periods lasting up to several weeks or longer.
(§1) Specifics of the procedure for evaluating the test compounds in Example II were the following. Urease-active soil (Crowley silt loam from Louisiana) was moistened to a moisture content of 16% (dry weight basis) and preincubated at room temperature for two days. One milliliter of solution or suspension containing 7 micromoles of each test compound was added to 120 g of moist soil and mixed well. Polyvinylchloride cylinders 12-cm long and 4 cm in diameter were filled with the inhibitor-soil mixtures, packed to a bulk density of about 0.9 g/cm^3, and covered with a perforated plastic film. […] At each time interval, 1 ml of urea solution containing 50 mg of urea was mixed well with the inhibitor-soil mixture from a single column. The urea-inhibitor-soil mixture was packed in a column to a bulk density of about 0.9 g/cm^3, covered with a perforated plastic film, and reincubated for 16 hours at 30° C. Following the 16 hours of reincubation, about 120 g of the urea-inhibitor-soil mixture was extracted with 250 ml of 2 M KCl containing 5 ppm of […]. The KCl-PPDA extracts were analyzed on the Auto Analyzer II [Technicon method No. 40001 FD4, Technicon, Tarrytown, N.Y., U.S.A. (1974)]. Three replicates were used on all treatments and checks.
as §1, with “are as follows.” for “were the following.”, “New York,” for “N.Y.,”, “checks. Two groups of compounds were tested as indicated in Table IV as Test Series I and Test Series II.” for “checks.”

[2] = tested on: urease; conditions: literature and earlier patents; cited from earlier work
[3] = tested on: soil urease (Hastings silt loam); experiment: Urea hydrolysis in bands of urea plus inhibitor in soil (banded soil system); type: biochemical; conditions: for % inhibition, as measured by percent urea unhydrolyzed: 41 mg inhibitor + 410 mg urea per band, Hastings silt loam, 25° C.
Description: Another advantage of the banded configuration compared with mixing throughout the soil is that slightly soluble test compounds can be easily band applied, whereas it is difficult to achieve a known degree of mixing of a small quantity of slightly soluble test compound with soil. The banded configuration also enables testing for urease inhibition under realistic soil conditions prior to the development of techniques for cogranulating a wide range of test compounds with urea. […] Urease-active soil (Hastings silt loam) was moistened to a moisture content of 20% (dry weight basis) and preincubated at room temperature for two days. Plexiglas containers (6×6×6 -cm) were one-half filled with soil and packed to a bulk density of 1.1 g/cm^3. Urea or urea plus inhibitor (thoroughly mixed) was distributed in a narrow band 6-cm long on the soil surface. The containers then were filled with soil, again packing to a bulk density of 1.1 g/cm^3. The containers were incubated at 25° C. for the desired reaction period, after which the containers were frozen to about -5° C. to stop urea hydrolysis. Immediately prior to extracting the remaining urea from the soil, said soil was allowed to thaw. Soil from each container was thoroughly mixed, and a 10-g sample was extracted with 100 ml of 2 M KCl containing phenylmercuric acetate to prevent urea hydrolysis during handling [L. A. Douglass and J. M. Bremner, Soil Sci. Soc. Am.
Urease-active soil (Hastings silt loam) was moistened to a moisture content of 20% and preincubated at room temperature for two days. Plexiglas containers (6×6×6 cm) were one-half filled with soil and packed to a bulk density of 1.1 g/cm^3. Urea or urea plus inhibitor (thoroughly mixed) was distributed in a narrow band 6-cm long on the surface of the soil. The containers then were filled with soil and again packed to a bulk density of 1.1 g/cm^3. The containers were incubated at 25° C. for the desired reaction period. The soil from each container was thoroughly mixed, and a 10-g sample was extracted with 100 ml of 2 M KCl containing 5 ppm phenylmercuric acetate to prevent urea hydrolysis during handling [L. A. Douglass and J. M. Bremner, Soil Sci. Soc. Am. […] The urea in the extracts was determined colorimetrically as a measure of the unhydrolyzed urea.

[4] = tested on: urease; conditions: IFDC, unpublished results; cited from earlier work
[5] = Test Series I, inhibitor incubation 0 days
[6] = Test Series I, inhibitor incubation 3 days
[7] = Test Series I, inhibitor incubation 7 days
[8] = Test Series I, inhibitor incubation 14 days
[9] = Test Series I, inhibitor incubation 21 days
[10] = Test Series I, inhibitor incubation 35 days
[11] = Test Series II, inhibitor incubation 0 days
[12] = Test Series II, inhibitor incubation 7 days
[13] = Test Series II, inhibitor incubation 15 days
[14] = Test Series II, inhibitor incubation 21 days

| Compound | Percent urea unhydrolyzed (higher = more urease inhibition) [1, 5] | Percent urea unhydrolyzed (higher = more urease inhibition) [1, 6] | Percent urea unhydrolyzed (higher = more urease inhibition) [1, 7] | Percent urea unhydrolyzed (higher = more urease inhibition) [1, 8] | Percent urea unhydrolyzed (higher = more urease inhibition) [1, 9] | Percent urea unhydrolyzed (higher = more urease inhibition) [1, 10] | Percent urea unhydrolyzed (higher = more urease inhibition) [1, 11] | Percent urea unhydrolyzed (higher = more urease inhibition) [1, 12] | Percent urea unhydrolyzed (higher = more urease inhibition) [1, 13] | Percent urea unhydrolyzed (higher = more urease inhibition) [1, 14] | urease inhibition (in words) reported by previous workers [2] | % inhibition, as measured by percent urea unhydrolyzed ([3]; Test Series I, 3 days) | % inhibition, as measured by percent urea unhydrolyzed ([3]; Test Series I, 6 days) | % inhibition, as measured by percent urea unhydrolyzed ([3]; Test Series II, 0 days) | % inhibition, as measured by percent urea unhydrolyzed ([3]; Test Series II, 3 days) | % inhibition, as measured by percent urea unhydrolyzed ([3]; Test Series II, 6 days) | type of urease inhibition [4] | urease inhibitory activity remaining after long inhibitor incubation (in words) ([1]; up to 21 days incubation, Table IV, FIGS. 3 and 4) | effectiveness as an inhibitor of soil urease activity compared with PPDA (in words) ([3]; Table III, FIGS. 1 and 2, three-day and six-day tests) |
| --- | --- | --- | --- | --- | --- | --- | --- | --- | --- | --- | --- | --- | --- | --- | --- | --- | --- | --- | --- |
| NP(N)(=O)Oc1ccccc1 [PPDA, Phenyl phosphorodiamidate] | 100% | 65% | 59% | 33% | 13% | 2% | 89% | 38% | 37% | 11% | extremely potent inhibitor of urease activity | 62.6% | 10.1% | 96.4% | 90.3% | 58.2% | competitive inhibition |  |  |
| NP(N)(N)=O [PTA, Phosphoryl triamide] |  |  |  |  |  |  |  |  |  |  | powerful urease inhibitors | 54.6% | 2.6% |  |  |  |  |  |  |
| NP(N)(=S)Oc1ccccc1 [PTPDA, Phenylthiophosphenyl diamidate] |  |  |  |  |  |  | 56% | 21% | 24% | 2% | less effective as an inhibitor |  |  | 100.0% | 97.2% | 65.7% |  |  |  |
| NP(N)(N)=S [TPTA, Thiophosphoryl triamide] | 59% | 54% | 54% | 19% | 27% | 2% | 47% | 13% | 37% | 18% | ineffective as a urease inhibitor | 71.7% | 34.9% | 100.0% | 88.0% | 61.1% |  | superior | superior to PPDA |
| NP(N)(=O)O [diamidophosphoric acid] |  |  |  |  |  |  |  |  |  |  | effective urease inhibitors |  |  |  |  |  |  |  |  |
| Oc1ccc(O)cc1 [hydroquinone] |  |  |  |  |  |  |  |  |  |  |  |  |  |  |  |  | mixed inhibition mechanism |  |  |
| NP(=O)(O)O [monoamidophosphoric acid] |  |  |  |  |  |  |  |  |  |  | effective urease inhibitors |  |  |  |  |  |  |  |  |
